# Experimental data as given in ChEMBL document CHEMBL1201862, “PubChem BioAssay data set” (2004).
#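 Step 1: Grow cells in 96-well plates. Step 2: Expose to compound for 48 hours at 5 concentrations. Step 3: Interpolate endpoints linearly; if unreached, use highest concentration. GI50 is the concentration that inhibits growth by half.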 The source made the active and inactive calls. Rule as the data show it: active = GI50 up to about 1.1 µM and inactive = higher.
# Legend:
# Test in all cases: NCI anticancer screen, dose series, 48 h
# CAKI-1 = tested on: CAKI-1
# OVCAR-3 = tested on: OVCAR-3
# MCF7 = tested on: MCF7
# NCI-H23 = tested on: NCI-H23
# TK-10 = tested on: TK-10
# UO-31 = tested on: UO-31
# M14 = tested on: M14
# UACC-62 = tested on: UACC-62
# SNB-19 = tested on: SNB-19
# RPMI-8226 = tested on: RPMI-8226
# HCT-15 = tested on: HCT-15
# EKVX = tested on: EKVX
# SK-OV-3 = tested on: SK-OV-3
# HCC 2998 = tested on: HCC 2998
# UACC-257 = tested on: UACC-257
# LOX IMVI = tested on: LOX IMVI
# HL-60 = tested on: HL-60
# NCI-H460 = tested on: NCI-H460
# OVCAR-5 = tested on: OVCAR-5
# SR = tested on: SR
Structure (SMILES),GI50 (CAKI-1),GI50 (OVCAR-3),GI50 (MCF7),GI50 (NCI-H23),GI50 (TK-10),GI50 (UO-31),GI50 (M14),GI50 (UACC-62),GI50 (SNB-19),GI50 (RPMI-8226),GI50 (HCT-15) [nM],GI50 (EKVX),GI50 (SK-OV-3),GI50 (HCC 2998),GI50 (UACC-257),GI50 (LOX IMVI),GI50 (HL-60),GI50 (NCI-H460),GI50 (OVCAR-5),GI50 (SR)
COCOC1/C=C/CCCC#C[C@H](C)C(=O)CC1 (stereo not given in full),11500 nM (inactive),6120 nM (inactive),5550 nM (inactive),5970 nM (inactive),15200 nM (inactive),14800 nM (inactive),8150 nM (inactive),10000 nM (inactive),17900 nM (inactive),2210 nM (inactive),8570,10400 nM (inactive),15800 nM (inactive),14600 nM (inactive),6050 nM (inactive),3050 nM (inactive),2320 nM (inactive),8730 nM (inactive),7380 nM (inactive),3460 nM (inactive)
CN(C)CCNC(=O)c1ccc(NCCCN(C)CCCNc2ccc(C(=O)NCCN(C)C)c3nc4ccccc4c(O)c23)c2c(O)c3ccccc3nc12,501 nM (active),22.8 nM (active),< 10 nM (active),< 12.2 nM (active),160 nM (active),326 nM (active),187 nM (active),52.5 nM (active),< 10 nM (active),< 10 nM (active),486,115 nM (active),< 14.6 nM (active),< 10 nM (active),185 nM (active),< 10 nM (active),< 22.9 nM (active),< 10 nM (active),42.2 nM (active),< 10 nM (active)
